Measurements reported in ChEMBL document CHEMBL5032495, “Discovery of Novel Tacrine-Pyrimidone Hybrids as Potent Dual AChE/GSK-3 Inhibitors for the Treatment of Alzheimer's Disease” (J Med Chem, 2021).
Active and inactive are the calls of the source. The rule behind the calls is not given here.

Columns and labels:
[1] = Toxicity in ICR mouse assessed as emesis at 15 mg/kg, ip measured after 15 days; assay type: organism-based; conditions: in vivo, 360 h, time 15 day
[2] = Drug concentration in ICR mouse plasma at 15 mg/kg, ip measured after 0.5 hrs by UPLC-MS/MS analysis; assay type: ADME, organism-based
[3] = biological target: T1, Glycogen synthase kinase-3 beta (Homo sapiens, UniProt P49841)
Target sequence in this assay (P49841 whole entry): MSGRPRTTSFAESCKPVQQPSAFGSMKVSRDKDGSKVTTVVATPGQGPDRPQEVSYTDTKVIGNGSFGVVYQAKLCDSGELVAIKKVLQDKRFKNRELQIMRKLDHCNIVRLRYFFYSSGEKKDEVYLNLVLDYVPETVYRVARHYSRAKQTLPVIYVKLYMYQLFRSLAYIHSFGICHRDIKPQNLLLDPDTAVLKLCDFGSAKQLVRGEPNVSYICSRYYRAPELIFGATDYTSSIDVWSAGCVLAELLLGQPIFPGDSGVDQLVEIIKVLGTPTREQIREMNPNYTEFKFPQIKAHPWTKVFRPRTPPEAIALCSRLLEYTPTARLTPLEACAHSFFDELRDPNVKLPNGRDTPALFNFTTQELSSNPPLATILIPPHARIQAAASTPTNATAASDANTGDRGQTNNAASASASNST
Description: Inhibition of human recombinant GSK-3beta using prephosphorylated polypeptide as substrate incubated for 30 mins in presence of ATP by Kinase-Glo luminescence assay

[4] = biological target: T1, Glycogen synthase kinase-3 beta; assay: Inhibition of GSK-3beta in glyceraldehyde-treated human SH-SY5Y cells assessed as reduction in phosphorylated Tau levels at S199 site measured after 24 hrs by ELISA
Target sequence in this assay (P49841 whole entry, looked up): as the sequence (P49841 whole entry) above

[5] = Tmax in ICR mouse at 15 mg/kg, ip measured upto 24 hrs by UPLC-MS/MS analysis; assay type: ADME, organism-based; conditions: in vivo
[6] = biological target: Glycogen synthase kinase-3 alpha (Homo sapiens) (UniProt P49840); assay: Inhibition of GSK-3alpha (unknown origin) at 1000 nM
Sequence of Glycogen synthase kinase-3 alpha (Homo sapiens) (P49840 2-483 limits assumed): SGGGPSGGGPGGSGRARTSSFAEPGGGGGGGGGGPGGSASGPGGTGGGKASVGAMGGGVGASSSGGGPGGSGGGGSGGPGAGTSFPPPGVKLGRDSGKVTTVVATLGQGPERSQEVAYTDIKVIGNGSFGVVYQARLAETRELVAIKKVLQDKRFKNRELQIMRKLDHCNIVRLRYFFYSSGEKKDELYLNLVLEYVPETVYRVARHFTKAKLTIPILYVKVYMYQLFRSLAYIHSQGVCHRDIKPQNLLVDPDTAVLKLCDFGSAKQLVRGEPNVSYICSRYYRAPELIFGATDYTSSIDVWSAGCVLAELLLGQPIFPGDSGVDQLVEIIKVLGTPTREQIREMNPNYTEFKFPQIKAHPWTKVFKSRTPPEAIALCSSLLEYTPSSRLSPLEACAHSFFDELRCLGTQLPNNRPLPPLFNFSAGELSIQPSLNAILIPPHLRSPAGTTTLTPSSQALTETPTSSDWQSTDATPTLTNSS

[7] = biological target: T1, Glycogen synthase kinase-3 beta; assay: Inhibition of GSK-3beta in glyceraldehyde-treated human SH-SY5Y cells assessed as reduction in phosphorylated Tau levels at S396 site measured after 24 hrs by ELISA
Target sequence in this assay (P49841 whole entry, looked up): as the sequence (P49841 whole entry) above

[8] = Apparent oral clearance in ICR mouse at 15 mg/kg measured upto 24 hrs by UPLC-MS/MS analysis; assay type: ADME, organism-based; conditions: in vivo
[9] = Drug concentration in ICR mouse brain at 15 mg/kg, ip measured after 2 hrs by UPLC-MS/MS analysis; assay type: ADME, organism-based; conditions: read-out: Drug uptake
[10] = Ratio of drug concentration in brain to plasma in ICR mouse at 15 mg/kg, ip measured after 4 hrs by UPLC-MS/MS analysis; assay type: ADME, organism-based
[11] = AUClast in ICR mouse at 15 mg/kg, ip measured upto 24 hrs by UPLC-MS/MS analysis; assay type: ADME, organism-based; set-up: route intraperitoneal, dose 15 mg/kg, time <=24; conditions: in vivo
[12] = Tmax in ICR mouse at 5 mg/kg, iv measured upto 24 hrs by UPLC-MS/MS analysis; assay type: ADME, organism-based; conditions: in vivo
[13] = Drug concentration in ICR mouse plasma at 15 mg/kg, ip measured after 4 hrs by UPLC-MS/MS analysis; assay type: ADME, organism-based
Acetylcholinesterase = biological target: T2, Acetylcholinesterase (Mus musculus, UniProt P21836); assay: Inhibition of mouse AChE using acetylthiocholine iodide as substrate incubated for 20 mins by Ellman's method
T2 sequence (P21836 whole entry): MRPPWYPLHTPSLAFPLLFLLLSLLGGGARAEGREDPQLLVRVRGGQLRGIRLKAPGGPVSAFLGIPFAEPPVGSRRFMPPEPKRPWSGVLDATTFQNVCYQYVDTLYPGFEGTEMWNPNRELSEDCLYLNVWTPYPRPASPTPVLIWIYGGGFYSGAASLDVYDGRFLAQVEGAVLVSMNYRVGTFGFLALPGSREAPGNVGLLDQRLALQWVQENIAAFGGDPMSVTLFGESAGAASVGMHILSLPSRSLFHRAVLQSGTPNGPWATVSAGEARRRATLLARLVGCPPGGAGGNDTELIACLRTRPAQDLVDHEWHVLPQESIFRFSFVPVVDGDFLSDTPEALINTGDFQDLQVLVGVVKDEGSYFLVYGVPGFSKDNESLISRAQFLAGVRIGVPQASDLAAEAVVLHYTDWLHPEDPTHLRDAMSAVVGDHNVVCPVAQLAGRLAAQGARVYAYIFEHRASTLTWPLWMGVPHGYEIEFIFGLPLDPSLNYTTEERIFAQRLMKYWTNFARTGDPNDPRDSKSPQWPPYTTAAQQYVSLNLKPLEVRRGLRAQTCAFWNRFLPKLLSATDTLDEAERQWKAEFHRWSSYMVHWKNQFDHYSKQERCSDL

[14] = Volume of distribution in ICR mouse at 15 mg/kg, ip measured upto 24 hrs by UPLC-MS/MS analysis; assay type: ADME, organism-based; conditions: in vivo
[15] = Apparent oral clearance in ICR mouse at 5 mg/kg measured upto 24 hrs by UPLC-MS/MS analysis; assay type: ADME, organism-based; conditions: in vivo
[16] = Ratio of drug concentration in brain to plasma in ICR mouse at 15 mg/kg, ip measured after 2 hrs by UPLC-MS/MS analysis; assay type: ADME, organism-based
[17] = Drug concentration in ICR mouse plasma at 15 mg/kg, ip measured after 1 hr by UPLC-MS/MS analysis; assay type: ADME, organism-based
SH-SY5Y [18] = assay: Neuroprotective activity in human SH-SY5Y cells assessed as prevention of glyceraldehyde-induced neurite shortening at 0.5 to 5 uM incubated for 1 hr by confocal microsocopic analysis; assay type: functional, cell-based; conditions: dose 0.5-5 µM
[19] = Toxicity in ICR mouse assessed as swimming motility impairment at 15 mg/kg, ip measured after 15 days; assay type: organism-based; conditions: in vivo, 360 h, time 15 day
SH-SY5Y [20] = assay: Neuroprotective activity against glyceraldehyde-induced neurotoxicity in human SH-SY5Y cells assessed as increase in cell viability at 0.5 to 5 uM incubated for 24 hrs by MTT assay; assay type: functional, cell-based; conditions: dose 0.5-5 µM
[21] = Half life in ICR mouse at 15 mg/kg, ip measured upto 24 hrs by UPLC-MS/MS analysis; assay type: ADME, organism-based; conditions: in vivo
[22] = Ratio of drug concentration in brain to plasma in ICR mouse at 15 mg/kg, ip measured after 1 hr by UPLC-MS/MS analysis; assay type: ADME, organism-based
[23] = Bioavailability in ICR mouse at 15 mg/kg, ip measured upto 24 hrs by UPLC-MS/MS analysis; assay type: ADME, organism-based; conditions: in vivo
[24] = Drug concentration in ICR mouse brain at 15 mg/kg, ip measured after 0.5 hrs by UPLC-MS/MS analysis; assay type: ADME, organism-based; conditions: read-out: Drug uptake
[25] = Ratio of drug concentration in brain to plasma in ICR mouse at 15 mg/kg, ip measured after 0.5 hrs by UPLC-MS/MS analysis; assay type: ADME, organism-based
[26] = MRTlast in ICR mouse at 15 mg/kg, ip measured upto 24 hrs by UPLC-MS/MS analysis; assay type: ADME, organism-based; conditions: in vivo
[27] = MRTlast in ICR mouse at 5 mg/kg, iv measured upto 24 hrs by UPLC-MS/MS analysis; assay type: ADME, organism-based; conditions: in vivo
[28] = Drug concentration in ICR mouse plasma at 15 mg/kg, ip measured after 2 hrs by UPLC-MS/MS analysis; assay type: ADME, organism-based
[29] = biological target: T1, Glycogen synthase kinase-3 beta; assay: Inhibition of GSK-3beta (unknown origin) at 1000 nM
Target sequence in this assay (P49841 whole entry, looked up): as the sequence (P49841 whole entry) above

[30] = Cmax in ICR mouse at 5 mg/kg, iv measured upto 24 hrs by UPLC-MS/MS analysis; assay type: ADME, organism-based; set-up: route intravenous, dose 5 mg/kg, time <=24; conditions: in vivo
[31] = Half life in ICR mouse at 5 mg/kg, iv measured upto 24 hrs by UPLC-MS/MS analysis; assay type: ADME, organism-based; conditions: in vivo
[32] = Toxicity in ICR mouse assessed as diarrhea at 15 mg/kg, ip measured after 15 days; assay type: organism-based; conditions: in vivo, 360 h, time 15 day
[33] = Drug concentration in ICR mouse brain at 15 mg/kg, ip measured after 1 hr by UPLC-MS/MS analysis; assay type: ADME, organism-based; conditions: read-out: Drug uptake
[34] = Cmax in ICR mouse at 15 mg/kg, ip measured upto 24 hrs by UPLC-MS/MS analysis; assay type: ADME, organism-based; set-up: route intraperitoneal, dose 15 mg/kg, time <=24; conditions: in vivo
[35] = AUClast in ICR mouse at 5 mg/kg, iv measured upto 24 hrs by UPLC-MS/MS analysis; assay type: ADME, organism-based; set-up: route intravenous, dose 5 mg/kg, time <=24; conditions: in vivo
[36] = Volume of distribution in ICR mouse at 5 mg/kg, iv measured upto 24 hrs by UPLC-MS/MS analysis; assay type: ADME, organism-based; conditions: in vivo
[37] = Drug concentration in ICR mouse brain at 15 mg/kg, ip measured after 4 hrs by UPLC-MS/MS analysis; assay type: ADME, organism-based; conditions: read-out: Drug uptake

Cn1c(NCCCCCCCNc2c3c(nc4cc(Cl)ccc24)CCCC3)nc(-c2ccncc2F)cc1=O
Activity [1]: Non-Toxic
concentration at 0.5 h [2]: 866 ng/mL
IC50 [3]: 89.3 µM
inhibition [4]: Dose-Dependent Effect
Tmax [5]: 8.34 min
inhibition [6]: Active
inhibition [7]: Dose-Dependent Effect
CL/F [8]: 0.152 mL/min/kg
concentration at 2 h [9]: 12.2 ng/g
Kp at 4 h [10]: 1.92
AUC(0-t) at 24 h [11]: 1660 ng·h/mL
Tmax [12]: 1.98 min
concentration at 4 h [13]: 3.47 ng/mL
IC50 (Acetylcholinesterase): 51.1 µM
Vd [14]: 14.14 L/kg
CL/F [15]: 0.0513 mL/min/kg
Kp at 2 h [16]: 0.522
concentration at 1 h [17]: 76.8 ng/mL
Activity (SH-SY5Y [18]): Dose-Dependent Effect
Activity [19]: Non-Toxic
Activity (SH-SY5Y [20]): Active
half-life [21]: 69 min
Kp at 1 h [22]: 0.148
bioavailability [23]: 35.3%
concentration at 0.5 h [24]: 23.6 ng/g
Kp at 0.5 h [25]: 0.028
MRT last at 24 h [26]: 46.8 min
MRT last at 24 h [27]: 183 min
concentration at 2 h [28]: 26.8 ng/mL
inhibition [29]: Active
Cmax [30]: 2810 ng/mL
half-life [31]: 219 min
Activity [32]: Non-Toxic
concentration at 1 h [33]: 11.1 ng/g
Cmax [34]: 1870 ng/mL
AUC(0-t) at 24 h [35]: 1560 ng·h/mL
Vd [36]: 16.4 L/kg
concentration at 4 h [37]: 5.99 ng/g
